The source of these data is patent publication US20220175675A1, “ENCAPSULATING MOLECULES IN FAT GLOBULES” (The Regents of the University of California, priority 2019, published 2022).

Where “and” joins values, the source holds several entries; their conditions need not be identical. Identical values can stand only once. Like-named read-outs stand apart in the source and are kept apart here. Marks after values point to notes of the source that are not given here.

For data set [1] the following is noted: cited from earlier work.
The conditions of data set [2]: cited from earlier work; for Log P: octanol/water; for Water/octanol partitioning coefficient, Log P: Measured or estimated, from references.
A short description of data set [3]: Encapsulation of hydrophobic compounds into milk fat globules (loading capacity, encapsulation efficiency). It is filed as physicochemical, bovine. The following applies: 10% v/v ethanol, 30 min; for % Encapsulation efficiency / maximal loading capacity (LC): room temperature; for maximal loading capacity (LC): maximal value over 50-2500 μM. Here is the method: Raw milk was procured from a local market and stored at 4° C. Milk was used for up to 4 days post purchase. MFGs were separated from raw milk using centrifugal separation following a modified version of the method by Gallier et al. (2010) (12). First, raw milk was diluted with Milli-Q water at 9:1 water to milk, and the solution was centrifuged at 3,000×g for 5 min using a fixed angle centrifuge rotor. Cream was then skimmed off the sides of the centrifuged tubes after discarding the aqueous phase. In order to remove more of the milk serum components, cream was reconstituted in water to reach 4% w/v, and subjected to another step of centrifugation at 3,000×g for 5 min Cream was collected as detailed prior, then reconstituted to 20% w/v in Milli-Q water. All separation steps were completed at room temperature.
Encapsulation of test compounds in MFGs was accomplished by mixing ethanolic stock solution of a compound with 20% w/v cream suspended in water. The mixture was gently inverted several times to mix, then allowed in incubate in the dark.
To test the effect of incubation temperature on the partitioning and encapsulation yield and efficiency, RA was added at 250 μM concentration and was allowed to incubate with MFGs for 30 min at 4, 22, and 40° C.
To quantify the amount of compound encapsulated in MFGs, cream was separated from ethanol-containing aqueous phase via centrifugal separation at 3,000 x g for 5 min. Cream was skimmed and added to methanol at 50 mg/mL and vortexed vigorously for 1 min, then centrifuged at 16,000×g for 10 min. Top layer of methanol was collected and absorbance was measured at appropriate wavelength for each compound. An absorbance blank was prepared following the same encapsulation and separation steps in the absence of compound. λmax in methanol (nm) for each compound is reported in Table 1.
Cream (20% w/v in Milli-Q water) that was separated following the steps in Example 2 was further separated via centrifugation at 3,000×g for 5 min. Fat content in cream was measured using a modified Folch method (13). An additional washing step was incorporated where the chloroform/water interface was washed with 1:1 water/methanol solution.

Data set [4] in a line: Water/octanol partitioning coefficient, Log P.
Description: One such molecular property that is used to predict partitioning potential is the octanol—water partition coefficient; Log P, which is the logarithm of the ratio of the solute concentration in the octanol phase to the solute concentration in the water phase, at a defined temperature.
The nature of data set [5]: Loading of curcumin in milk fat globules. The class given is physicochemical, bovine. Here is the method: Raw milk was used within 3-4 days of purchasing during which it was stored at 4° C. MFGs were isolated using a modified form of the method by […] et al. (2010) ^3° . […] Raw cream that was separated following the method stated in Example 31 was used for the quantification of oil content per gram of raw cream. […] The two immiscible phases were separated. […] Chloroform extracts were combined and the solvent was removed under vacuum at room temperature for 24 h. Mass of the isolated lipid from the sample was measured gravimetrically. Measurements were completed in triplicated from independent raw milk samples. […] Incubation was completed in the dark to prevent photodegradation of curcumin. […] Encapsulations measurements were conducted in triplicates. […] The mixture was then vortexed rigorously, followed by centrifugation at 16,000×g for 10 min. […] Curcumin containing samples were kept covered throughout the extraction and measurements steps. The encapsulation efficiency was calculated as follows: where CE is the mass of curcumin extracted from MFGs, and […]. The loading capacity was calculated as follows: where CE is the mass of curcumin extracted from MFGs, and MF is the mass of milk fat in MFGs suspension.

A short description of data set [6]: AAPH measurement of curcumin oxidative stability. The class given is physicochemical. Here is the method: 100 mg/ml encapsulated oleosome and encapsulated whey protein emulsion were respectively added with 40mM AAPH (Sigma) or water as control. Encapsulated oleosome and whey protein emulsion were then rotated and curcumin was extracted at different time points.

Where [7] appears, read: 200 μg/g added curcumin/cream, 1 v/v % ethanol, 10 min.
Setting [8] is: 400 μg/g added curcumin/cream, 2 v/v % ethanol, 10 min.
[9] abbreviates: 600 μg/g added curcumin/cream, 3 v/v % ethanol, 10 min.
Setting [10] is: 1000 μg/g added curcumin/cream, 5 v/v % ethanol, 10 min.
Setting [11] is: 1600 μg/g added curcumin/cream, 8 v/v % ethanol, 10 min.
Setting [12] is: 2000 μg/g added curcumin/cream, 10 v/v % ethanol, 10 min.

For `CCOC(=O)C1=C(COCCN)NC(C)=C(C(=O)OC)C1c1ccccc1Cl` (stereo not shown) [Amlodipine], in data set [1], the “solubility in water (Remarks)” value is “Drug sparingly soluble in water. Special only has 1-month shelf-life”.
Regarding `CC(=O)Oc1ccccc1C(=O)O` [Aspirin], the “solubility in water (Remarks)” value in data set [1] is given as “Very water soluble drug-use dispersible tablets”.
In the case of `COc1ccccc1OCCNCC(O)COc1cccc2[nH]c3ccccc3c12` (stereo not shown) [Carvedilol], the “solubility in water (Remarks)” value in data set [1] was “Drug sparingly soluble in water. Special only has 1-month shelf-life”.
Turning to `O=C1Nc2ccc(Cl)cc2[C@@](C#CC2CC2)(C(F)(F)F)O1` [Efavirenz], the Waters solubility in data set [1] is 8.55 µg/mL. Moreover, the log partition coefficient (Log P) in data set [2] is listed as 3.89-4.46.
Regarding `CCOC(=O)[C@H](CCc1ccccc1)N[C@@H](C)C(=O)N1CCC[C@H]1C(=O)O` [Enalapril], the “solubility in water (Remarks)” value in data set [1] is given as “Drug sparingly soluble in water. Crushed tablets suspended in water”.
In the case of `O=c1c(O)c(-c2ccc(O)c(O)c2)oc2cc(O)ccc12` [Fisetin], the “% Encapsulation efficiency” value in data set [3] (50 μM added compound) came out at 28.64 ± 5.20%; in data set [3] (100 μM added compound), 29.16 ± 1.50%; in data set [3] (150 μM added compound) it was 30.55 ± 3.76%; in data set [3] (200 μM added compound), 29.83 ± 2.47%; in data set [3] (250 μM added compound), 28.41 ± 1.56%; in data set [3] (500 μM added compound), 15.89 ± 1.42 %. In addition, the “% Encapsulation efficiency” value in data set [3] (1000 μM added compound) amounted to 15.16 ± 1.46 %; in data set [3] (1500 μM added compound), 7.57 ± 0.43 %; in data set [3] (2000 μM added compound) it was 14.26 ± 2.77 %; in data set [3] (2500 μM added compound), 4.49 ± 1.08 %. In addition, in data set [3], the “maximal loading capacity (LC)” value was 9.77 μg per gram of milk fat. Also, the “Water/octanol partitioning coefficient, Log P” value in data set [2] is reported as 0.464-2.52 ^(14, 15). For the same compound, the logP in data set [4] was approximately 1.5.
As for `CC(C)(C)NCC(O)COc1cccc2c1CC(O)C(O)C2` (stereo not shown) [Nadolol], the “solubility in water (Remarks)” value in data set [1] is recorded as “Drug sparingly soluble in water. Special only has 1-month shelf-life”.
Consider `CC[C@H](C)C(=O)O[C@H]1C[C@H](O)C=C2C=C[C@H](C)[C@H](CC[C@@H](O)C[C@@H](O)CC(=O)O)[C@H]21` [Pravastatin], for which the “solubility in water (Remarks)” value in data set [1] was “Drug freely soluble in water, crushed tablets often dissolved in water”.
Consider `O.O=c1c(O)c(-c2ccc(O)c(O)c2)oc2cc(O)cc(O)c12` [Quercetin hydrate], for which the “% Encapsulation efficiency” value in data set [3] (50 μM added compound) was 25.27 ± 3.47^ %; in data set [3] (100 μM added compound), 45.35 ± 8.53 %; in data set [3] (150 μM added compound), 43.78 ± 4.16 %; in data set [3] (200 μM added compound), 50.09 ± 3.71 %; in data set [3] (250 μM added compound), 48.95 ± 3.47 %; in data set [3] (500 μM added compound), 49.00 ± 1.17 %. For the same compound, the “% Encapsulation efficiency” value came to 12.91 ± 1.78 % in data set [3] (1000 μM added compound), 18.38 ± 9.27 % in data set [3] (1500 μM added compound), 17.92 ± 4.31 % in data set [3] (2000 μM added compound) and 13.70 ± 1.30 % in data set [3] (2500 μM added compound). Moreover, in data set [3], the “maximal loading capacity (LC)” value is 12.97 μg per gram of milk fat. Besides, in data set [3] (over tested concentrations), the “encapsulation efficiency (EE %), maximal/overall value” is listed as 50%. For the same compound, the “Water/octanol partitioning coefficient, Log P” value in data set [2] is on record as 1.82-2.075 ^(16, 17).
Consider `CCOC(=O)[C@H](CCc1ccccc1)N[C@@H](C)C(=O)N1[C@H](C(=O)O)C[C@@H]2CCC[C@@H]21` [Ramipril], for which the “solubility in water (Remarks)” value in data set [1] is “Drug sparingly soluble in water. Crushed tablets suspended in water”.
Consider `CC(=O)CC(c1ccccc1)c1c(O)c2ccccc2oc1=O` (stereo not shown) [Warfarin], for which the “solubility in water (Remarks)” value in data set [1] is listed as “Drug freely soluble in water, crushed tablets often dissolved in water”.
Take `COc1cc(/C=C/C(=O)CC(=O)/C=C/c2ccc(O)c(OC)c2)ccc1O` [curcumin]: in data set [5], the “increase in encapsulation yield compared to reported loading values in emulsions formed using edible oils” value was “at least 3 folds”. In addition, the EE % in data set [5] (setting [7]) turned out to be 62.09 ± 1.46%; in data set [5] (setting [8]), 61.17 ± 2.13%; in data set [5] (setting [9]), 62.10 ± 2.54%; in data set [5] (setting [10]), 66.56 ± 0.13 %; in data set [5] (setting [11]), 62.55 ± 0.37%; in data set [5] (setting [12]), 59.33 ± 0.73%. In addition, the EE % in data set [5] (Incubation time 10 min, fixed concentration of curcumin and ethanol) turned out to be 62.36 ± 1.85%; in data set [5] (Incubation time 20 min, fixed concentration of curcumin and ethanol), 66.43 ± 4.32%; in data set [5] (Incubation time 30 min, fixed concentration of curcumin and ethanol), 61.20 ± 1.78%; in data set [5] (Incubation time 40 min, fixed concentration of curcumin and ethanol) it was 59.75 ± 2.10%; in data set [5] (Incubation time 50 min, fixed concentration of curcumin and ethanol), 57.24 ± 0.83 %; in data set [5] (Incubation time 60 min, fixed concentration of curcumin and ethanol), 64.30 ± 2.42%. Moreover, the “LC %, curcumin/milk fat” value in data set [5] (setting [7]) is 368 μg/g and 368.11 ± 2.92 ^a μg/g; in data set [5] (setting [8]), 244.69 ± 8.53 ^b μg/g; in data set [5] (setting [9]), 372.60 ± 15.27 ^c μg/g; in data set [5] (setting [10]) it was 665.55 ± 1.31 ^d μg/g; in data set [5] (setting [11]), 1000.76 ± 5.97 ^e μg/g; in data set [5] (setting [12]), 1186.65±14.63 μg/g and 1186 μg/g and 1186.65 ± 14.63 ^ μg/g. The “EE % range over curcumin and ethanol concentrations” value in data set [5] (200-2000 μg/g of raw cream, 1 to 10% v/v ethanol, 10 min) is 59-64%. For the same compound, in data set [5] (MFGs, simple diffusion), the “curcumin encapsulated per gram of milk fat” value was “Greater than 1000 μg”. Besides, the curcumin absorbance remaining in data set [6] (WPI control group (water), at 20 and 24 h) is recorded as 90%; in data set [6] (WPI, 40mM AAPH) it was 0.03%; in data set [6] (WPI, 40mM AAPH, 20 h), 22%; in data set [6] (WPI, 40mM AAPH, 24 h), 12%; in data set [6] (oleosome control group (water), within 46 h), “above 90%”; in data set [6] (oleosome, 40mM AAPH), 42%. The curcumin absorbance remaining is 76% in data set [6] (oleosome, 40mM AAPH, 20 h) and 68% in data set [6] (oleosome, 40mM AAPH, 24 h). In addition, the figures for the “Log P” value in data set [2] and in data set [2] (listed as Curcumin) were 4.3 and “approximately 4.3”, respectively.

By Log P is commonly meant a log measure of how a compound divides between an organic and an aqueous phase. For orientation: logP means a log measure of how a compound divides between an organic and an aqueous phase. Lower therefore signals a more hydrophilic compound.
